One test deals with T1, RARα (Homo sapiens, UniProt P10276).
T1 sequence (P10276 1-462): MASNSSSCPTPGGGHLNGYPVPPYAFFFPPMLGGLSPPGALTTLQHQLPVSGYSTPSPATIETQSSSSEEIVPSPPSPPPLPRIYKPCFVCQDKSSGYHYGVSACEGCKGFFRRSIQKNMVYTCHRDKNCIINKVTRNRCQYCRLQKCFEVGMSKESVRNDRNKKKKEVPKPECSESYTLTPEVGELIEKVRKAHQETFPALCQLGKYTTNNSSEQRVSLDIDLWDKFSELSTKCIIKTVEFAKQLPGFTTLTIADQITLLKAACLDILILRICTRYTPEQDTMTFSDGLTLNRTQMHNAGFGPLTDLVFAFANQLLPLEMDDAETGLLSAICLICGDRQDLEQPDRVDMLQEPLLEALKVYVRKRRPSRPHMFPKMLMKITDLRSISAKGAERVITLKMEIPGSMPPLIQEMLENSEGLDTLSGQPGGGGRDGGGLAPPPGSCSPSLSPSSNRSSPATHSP
Kind of test: RAR binding, competition with tritiated retinoid. The following applies: read-out: RAR Binding alpha. The text has this:
(§1) In addition to the cotransfection data, the binding of selected compounds of the present invention to the RAR and RXR receptors was also investigated according to the methodology described in M. F., Boehm, et al., “Synthesis and Structure-Activity Relation-ships of Novel Retinoid X Receptor Selective Retinoids”, 37 J. Med. Chem., 2930 (1994); M. F. Boehm, et al., “Synthesis of High Specific Activity [^3H]-9-cis Retinoic Acid and Its Application for Identifying Retinoids with Unusual Binding Properties”, 37 J. Med. Chem., 408 (1994), and E. A. Allegretto, et al., “Characterization and Comparison of Hormone-Binding and Transactivation Properties of Retinoic Acid and Retinoid X Receptors Expressed in Mammalian Cells and Yeast”, 268 J. Biol. Chem., 22625 (1993), the disclosures of which are herein incorporated by reference.
(§2) Non-specific binding was defined as that binding remaining in the presence of 500 nM of the appropriate unlabelled compound. At the end of the incubation period, bound ligand was separated from free. The amount of bound tritiated retinoid was determined by liquid scintillation counting of an aliquot (700 μL) of the supernatant fluid or the hydroxylapatite pellet.
(§3) After correcting for non-specific binding, IC50 values were determined. The IC50 value is defined as the concentration of competing ligand needed to reduce specific binding by 50%. The IC50 value was determined graphically from a log-logit plot of the data. The Ki values were determined by application of the Cheng-Prussof equation to the IC50 values, the labeled ligand concentration and the Kd of the labeled ligand.

The next test concerns the target T2, RARγ (Homo sapiens, UniProt P13631).
T2 sequence (P13631 1-454): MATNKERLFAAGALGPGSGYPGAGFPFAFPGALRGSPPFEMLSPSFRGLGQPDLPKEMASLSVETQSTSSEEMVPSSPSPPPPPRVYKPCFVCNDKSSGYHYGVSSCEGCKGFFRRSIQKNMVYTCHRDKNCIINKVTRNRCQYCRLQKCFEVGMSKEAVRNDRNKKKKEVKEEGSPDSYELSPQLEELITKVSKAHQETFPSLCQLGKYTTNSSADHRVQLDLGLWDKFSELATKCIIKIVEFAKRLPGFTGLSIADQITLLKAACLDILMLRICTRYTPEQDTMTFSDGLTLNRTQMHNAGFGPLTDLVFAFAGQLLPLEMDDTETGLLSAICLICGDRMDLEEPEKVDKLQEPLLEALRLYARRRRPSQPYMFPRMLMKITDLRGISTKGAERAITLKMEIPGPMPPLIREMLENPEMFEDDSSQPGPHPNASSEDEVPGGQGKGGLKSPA
Description: RAR binding, competition with tritiated retinoid. The conditions noted are these: read-out: RAR Binding gamma.
Excerpt: as §1, §2, §3

A further test deals with T3, RXRβ (UniProt P28704).
T3 sequence (P28704 1-520): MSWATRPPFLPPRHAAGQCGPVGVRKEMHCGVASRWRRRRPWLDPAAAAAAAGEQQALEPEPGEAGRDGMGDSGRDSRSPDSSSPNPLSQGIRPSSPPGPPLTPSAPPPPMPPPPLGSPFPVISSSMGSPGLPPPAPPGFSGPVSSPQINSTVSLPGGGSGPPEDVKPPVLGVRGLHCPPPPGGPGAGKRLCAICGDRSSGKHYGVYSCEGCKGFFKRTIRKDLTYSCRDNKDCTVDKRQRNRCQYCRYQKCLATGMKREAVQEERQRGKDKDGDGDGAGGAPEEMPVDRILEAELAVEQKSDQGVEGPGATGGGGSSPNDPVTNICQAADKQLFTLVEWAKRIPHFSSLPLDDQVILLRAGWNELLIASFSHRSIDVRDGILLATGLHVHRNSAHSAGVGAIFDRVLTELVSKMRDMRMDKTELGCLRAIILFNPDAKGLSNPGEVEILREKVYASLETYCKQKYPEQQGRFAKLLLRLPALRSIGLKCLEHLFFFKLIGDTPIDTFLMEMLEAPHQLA
Kind of test: RXR binding, competition with tritiated retinoid. The conditions noted are these: read-out: RXR Binding beta.
Excerpt: as §1, §2, §3

Another test concerns the target T4, RXRγ (UniProt P28705).
T4 sequence (P28705 1-463): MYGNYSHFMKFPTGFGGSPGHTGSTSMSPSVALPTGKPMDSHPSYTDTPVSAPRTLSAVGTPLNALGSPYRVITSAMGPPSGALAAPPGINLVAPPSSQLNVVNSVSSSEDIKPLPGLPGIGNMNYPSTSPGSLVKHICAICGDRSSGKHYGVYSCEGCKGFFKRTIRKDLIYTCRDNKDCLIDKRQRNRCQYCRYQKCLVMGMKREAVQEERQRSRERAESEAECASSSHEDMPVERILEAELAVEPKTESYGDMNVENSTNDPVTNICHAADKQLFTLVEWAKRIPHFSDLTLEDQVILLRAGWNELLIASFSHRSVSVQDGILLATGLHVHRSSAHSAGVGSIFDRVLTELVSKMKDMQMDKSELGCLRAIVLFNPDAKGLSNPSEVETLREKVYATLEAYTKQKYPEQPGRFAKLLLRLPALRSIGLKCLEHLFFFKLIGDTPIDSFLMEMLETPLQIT
Description: RXR binding, competition with tritiated retinoid. The conditions noted are these: read-out: RXR Binding gamma.
Excerpt: as §1, §2, §3

SMILES strings stand for the structures.

Regarding `CCOc1c(\C(=C/C=C/C(C)=C/C(=O)O)C(F)(F)F)cc(C(C)(C)C)cc1C(C)(C)C` [Example 5, (2E,4E,6E)-3-methyl-7-(2-ethoxy-3,5-di-tert-butylphenyl)-8,8,8-trifluoroocta-2,4,6-trienoic acid], the Ki at RARα is greater than 10000 nM; at RARγ, greater than 10000 nM; at RXRβ, 52 nM; on RXRγ, 184 nM.
With `CCCCOc1c(\C(C)=C/C=C/C(=C\C(=O)O)C(F)(F)F)cc(C(C)C)cc1C(C)C` [Example 4, (2E,4E,6Z)-7-(2-Butoxy-3,5-diisopropylphenyl)-3-trifluoromethyl-octa-2,4,6-trienoic acid], the Ki on RARα is greater than 10000 nM; at RARγ, greater than 10000 nM; at RXRβ, 1080 nM; at RXRγ, 865 nM.
On to `C/C(=C/C(F)=C/C(C)=C/C(=O)O)c1cc(C(C)(C)C)cc(C(C)(C)C)c1OCC(F)F` [Example 2, 7-[3,5-Di-tert-butyl-2-(2,2-difluoroethoxy)-phenyl]-5-fluoro-3-methyl-octa-2,4,6-trienoic acid], for which the Ki at RARα is greater than 10000 nM; on RXRβ, 15 nM; on RXRγ, 29 nM.
Regarding `CCCCOc1c(\C(C)=C/C=C/C(=C/C(=O)O)C(F)(F)F)cc(C(C)C)cc1C(C)C` [Example 3, (2Z,4E,6Z)-7-(2-Butoxy-3,5-diisopropylphenyl)-3-trifluoromethyl-octa-2,4,6-trienoic acid], the Ki was greater than 10000 nM at RARα, greater than 10000 nM at RARγ, 203 nM on RXRβ and 662 nM on RXRγ.
As for `C/C(=C/C=C(F)/C(C)=C/C(=O)O)c1cc(C(C)(C)C)cc(C(C)(C)C)c1OCC(F)F` [Example 1, 7-[3,5-di-tert-butyl-2-(2,2-difluoroethoxy)-phenyl]4-fluoro-3-methyl-octa-2,4,6-trienoic acid], the Ki at RARα was found to be 1150 nM; at RXRβ, 12 nM; on RXRγ, 21 nM.

Values taken from patent publication US20040248919A1, “Fluorinated trienes and their use as rxr modulators” (priority 2001, published 2004).
